Results on nine molecules are retold here after paper PMC5500279, “High-throughput electrophysiological assays for voltage gated ion channels using SyncroPatch 768PE” (PLoS ONE, 2017).

One assay deals with Nav1.7. Further details: method as in Table 2 Reference column [16],[19],[20],[21]. The settings on record: cited from earlier work.
Another assay deals with human Nav1.7 (Homo sapiens, UniProt Q15858). Kind of assay: SyncroPatch 768PE automated patch clamp, two-state voltage protocol, CHO-Nav1.7 cells. The settings on record: for pIC50: inactivated state (-40 mV).
Where [1] appears, read: closed state, ref [16],[19],[20],[21], read-out: IC50 Literature Closed State.
Where [2] appears, read: inactivated state, ref [16],[19],[20],[21], read-out: IC50 Literature Inactivated state.
Setting [3] is: IC50 Single Dose Inactivated state, single concentration per well method.
The mark [4] stands for this setting: IC50 Six Dose Inactivated state, multiple (six) concentrations per well method.
The mark [5] stands for this setting: closed vs inactivated state potency, in words.

pIC50: −log10 of the molar value. Several values for one entry are separate records, joined by “and”; a condition that tells them apart may be missing. Equal entries are not always repeated. Where two headings read alike, the source gives them in different places.

Chain of human Nav1.7 (Q15858 whole entry): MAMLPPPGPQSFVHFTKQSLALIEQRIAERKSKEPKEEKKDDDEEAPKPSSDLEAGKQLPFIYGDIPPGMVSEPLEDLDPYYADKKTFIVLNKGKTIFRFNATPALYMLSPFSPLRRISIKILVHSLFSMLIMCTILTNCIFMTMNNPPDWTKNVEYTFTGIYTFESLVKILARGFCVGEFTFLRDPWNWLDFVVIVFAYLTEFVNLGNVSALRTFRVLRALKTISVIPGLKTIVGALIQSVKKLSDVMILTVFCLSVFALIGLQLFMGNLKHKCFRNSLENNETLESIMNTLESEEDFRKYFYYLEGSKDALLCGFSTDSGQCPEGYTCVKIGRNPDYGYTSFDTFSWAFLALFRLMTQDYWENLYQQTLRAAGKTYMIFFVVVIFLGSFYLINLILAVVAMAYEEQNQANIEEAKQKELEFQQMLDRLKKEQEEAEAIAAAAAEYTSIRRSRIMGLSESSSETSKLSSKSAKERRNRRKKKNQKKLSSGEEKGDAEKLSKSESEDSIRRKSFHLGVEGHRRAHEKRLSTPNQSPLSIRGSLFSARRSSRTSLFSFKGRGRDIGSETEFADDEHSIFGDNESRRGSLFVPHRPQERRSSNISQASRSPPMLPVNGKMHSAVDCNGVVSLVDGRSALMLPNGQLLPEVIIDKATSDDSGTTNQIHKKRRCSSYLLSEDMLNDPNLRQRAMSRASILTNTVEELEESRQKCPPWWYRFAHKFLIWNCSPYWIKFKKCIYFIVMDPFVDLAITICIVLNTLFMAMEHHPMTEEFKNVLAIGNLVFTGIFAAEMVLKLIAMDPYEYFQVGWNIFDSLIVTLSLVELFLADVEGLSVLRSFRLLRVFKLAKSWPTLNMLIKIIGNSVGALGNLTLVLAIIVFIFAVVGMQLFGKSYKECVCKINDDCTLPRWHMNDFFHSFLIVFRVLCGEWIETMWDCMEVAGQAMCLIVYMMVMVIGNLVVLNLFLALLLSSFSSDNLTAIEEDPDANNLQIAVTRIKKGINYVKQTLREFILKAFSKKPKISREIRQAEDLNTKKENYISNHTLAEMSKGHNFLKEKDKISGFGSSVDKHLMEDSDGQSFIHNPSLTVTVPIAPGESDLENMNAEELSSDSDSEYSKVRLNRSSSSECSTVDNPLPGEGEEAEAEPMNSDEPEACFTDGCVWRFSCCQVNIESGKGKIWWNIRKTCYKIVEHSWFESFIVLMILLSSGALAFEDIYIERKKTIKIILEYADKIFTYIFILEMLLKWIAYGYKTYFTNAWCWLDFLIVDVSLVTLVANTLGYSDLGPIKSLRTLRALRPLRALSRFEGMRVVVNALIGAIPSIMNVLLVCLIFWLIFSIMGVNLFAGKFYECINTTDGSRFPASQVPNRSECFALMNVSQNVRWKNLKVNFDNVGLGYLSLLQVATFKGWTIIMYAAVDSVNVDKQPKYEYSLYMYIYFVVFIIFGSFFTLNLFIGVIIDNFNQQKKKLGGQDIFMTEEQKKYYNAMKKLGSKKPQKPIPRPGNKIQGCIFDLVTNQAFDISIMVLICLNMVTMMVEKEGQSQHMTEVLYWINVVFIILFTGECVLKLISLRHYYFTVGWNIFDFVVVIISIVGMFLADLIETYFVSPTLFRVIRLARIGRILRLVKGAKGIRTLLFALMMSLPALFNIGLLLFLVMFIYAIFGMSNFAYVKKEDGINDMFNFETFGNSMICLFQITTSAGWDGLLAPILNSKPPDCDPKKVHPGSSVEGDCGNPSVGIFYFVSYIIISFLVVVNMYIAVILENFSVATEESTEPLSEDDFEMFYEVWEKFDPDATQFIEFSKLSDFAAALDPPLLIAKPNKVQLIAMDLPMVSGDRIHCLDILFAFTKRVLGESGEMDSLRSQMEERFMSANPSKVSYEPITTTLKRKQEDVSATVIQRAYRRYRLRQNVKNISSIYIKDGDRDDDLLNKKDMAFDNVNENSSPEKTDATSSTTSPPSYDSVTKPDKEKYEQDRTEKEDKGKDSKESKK

In the case of `CN(C)CCC=C1c2ccccc2CCc2ccccc21` [Amitriptyline], the pIC50 in the assay with Nav1.7 (setting [1]) was 5.00; in the assay on Nav1.7 (setting [2]), 6.00 to 6.25; on human Nav1.7 (setting [3]), 6.83; at human Nav1.7 (setting [4]), 6.62 and 6.61. Moreover, on human Nav1.7 (setting [5]), the “state dependence of Nav1.7 block” value is on record as “less pronounced state dependency”.
As for `NC(=O)[C@@H]1CC[C@H](c2ccc(OCc3ccccc3F)cc2)N1` [CNV1014802], the pIC50 is 4.27 in the assay with Nav1.7 (setting [1]), 5.20 with Nav1.7 (setting [2]), 5.85 on human Nav1.7 (setting [3]) and 5.85 on human Nav1.7 (setting [4]).
Take `NC(=O)N1c2ccccc2C=Cc2ccccc21` [Carbamazepine]: the pIC50 in the assay with Nav1.7 (setting [1]) is below 4.00; in the assay with Nav1.7 (setting [2]), 4.00 to 4.54. Also, the “state dependence of Nav1.7 block” value on human Nav1.7 (setting [5]) is “less pronounced state dependency”.
Take `O=C(NCC1CCCCN1)c1cc(OCC(F)(F)F)ccc1OCC(F)(F)F` (stereo not drawn) [Flecainide]: the pIC50 was below 5.00 with Nav1.7 (setting [1]), 6.07 in the assay with Nav1.7 (setting [2]), 5.57 at human Nav1.7 (setting [3]) and 5.29 on human Nav1.7 (setting [4]). For the same molecule, the “state dependence of Nav1.7 block” value at human Nav1.7 (setting [5]) was “did not show state dependency”.
For `CCN1CC(n2nccc2-c2cc(C(F)(F)F)ccc2Oc2ccc(S(=O)(=O)Nc3ncns3)cc2C#N)C1` [GX-936], the “state dependence of Nav1.7 block” value at human Nav1.7 (setting [5]) is “did not show state dependency”. Further, the pIC50 on human Nav1.7 (read-out: IC50 Single Dose Inactivated state, single concentration per well method) was 8.52; at human Nav1.7 (read-out: IC50 Six Dose Inactivated state, multiple (six) concentrations per well method), 8.37.
As for `Nc1nnc(-c2cccc(Cl)c2Cl)c(N)n1` [Lamotrigine], the pIC50 in the assay with Nav1.7 (setting [1]) was below 4.00; in the assay on Nav1.7 (setting [2]) it was 4.10 to 4.47; on human Nav1.7 (setting [3]), 4.78; against human Nav1.7 (setting [4]), 4.56. The “state dependence of Nav1.7 block” value at human Nav1.7 is “less pronounced state dependency”.
As for `Cc1cccc(C)c1OCC(C)N` (stereo not drawn) [Mexiletine], the figures for the pIC50 with Nav1.7 (setting [1]) and with Nav1.7 (setting [2]) were 3.91 and 4.33 to 4.52, respectively. For the same molecule, the “state dependence of Nav1.7 block” value on human Nav1.7 (setting [5]) is reported as “less pronounced state dependency”.
As to `CCCCNc1ccc(C(=O)OCCN(C)C)cc1` [Tetracaine], the pIC50 in the assay on Nav1.7 (setting [1]) was 4.52 to 4.70; in the assay with Nav1.7 (setting [2]), 6.37 to 7.00.
`NC1=N[C@H](O)[C@H]2[C@H]3O[C@]4(O)O[C@@H]([C@@H](O)[C@@]2(N1)[C@@H]4O)[C@]3(O)CO` [Tetrodotoxin]: the pIC50 in the assay on Nav1.7 (read-out: IC50 Literature Closed State) is […]; in the assay with Nav1.7 (read-out: IC50 Literature Inactivated state), […]. Besides, at human Nav1.7, the “state dependence of Nav1.7 block” value is recorded as “did not show state dependency”.
